Data: ChEMBL document CHEMBL1129847, “2-[(substituted)phenyl]-5-[1-(2-phenylazacycloheptyl)methyl]-1H-pyrroles with high affinity and selectivity for the dopamine D3 receptor” (Bioorg Med Chem Lett, 1997)
pKi: −log10 of the molar value.

Tests used:
[1] = target: D(2) dopamine receptor (Homo sapiens, UniProt P14416); experiment: Ability to displace [125I]sulpiride from human Dopamine receptor D2, expressed in CHO cells; type: cell-based
[2] = target: Dopamine receptors; D2 & D3 (Homo sapiens) (UniProt P14416+P35462); experiment: Ratio of human dopamine D3 receptor to that of human dopamine D2 receptor was evaluated; type: protein assay
[3] = target: D(3) dopamine receptor (Homo sapiens, UniProt P35462); experiment: Ability to displace [125I]-sulpiride from human Dopamine receptor D3, expressed in CHO cells; type: cell-based
D(3) dopamine receptor, sequence (P35462 whole entry): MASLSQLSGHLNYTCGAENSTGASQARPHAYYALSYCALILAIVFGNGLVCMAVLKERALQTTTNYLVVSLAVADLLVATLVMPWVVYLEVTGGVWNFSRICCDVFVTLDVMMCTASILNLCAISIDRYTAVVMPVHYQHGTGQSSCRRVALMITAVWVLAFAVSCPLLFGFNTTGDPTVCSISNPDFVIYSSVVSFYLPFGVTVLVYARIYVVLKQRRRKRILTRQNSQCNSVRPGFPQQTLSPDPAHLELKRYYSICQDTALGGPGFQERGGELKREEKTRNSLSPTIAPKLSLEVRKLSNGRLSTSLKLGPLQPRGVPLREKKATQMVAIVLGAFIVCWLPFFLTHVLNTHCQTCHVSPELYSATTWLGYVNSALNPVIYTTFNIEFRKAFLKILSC

D(2) dopamine receptor, sequence (P14416 whole entry): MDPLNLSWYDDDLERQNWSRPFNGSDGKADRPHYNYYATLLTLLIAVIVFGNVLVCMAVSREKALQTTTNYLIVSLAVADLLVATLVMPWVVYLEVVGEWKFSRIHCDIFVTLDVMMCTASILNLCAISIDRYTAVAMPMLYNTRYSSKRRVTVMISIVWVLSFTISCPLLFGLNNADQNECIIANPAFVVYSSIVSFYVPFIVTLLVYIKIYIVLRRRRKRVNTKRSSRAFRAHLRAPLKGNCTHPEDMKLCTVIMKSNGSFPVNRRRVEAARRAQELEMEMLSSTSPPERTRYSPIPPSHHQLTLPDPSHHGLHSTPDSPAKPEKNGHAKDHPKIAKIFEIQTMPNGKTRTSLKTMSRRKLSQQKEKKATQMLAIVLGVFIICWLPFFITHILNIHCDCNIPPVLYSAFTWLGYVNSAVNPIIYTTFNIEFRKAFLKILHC

| SMILES | pKi [1] | Selectivity [2] | pKi [3] |
| --- | --- | --- | --- |
| CCS(=O)(=O)c1ccc(OC)c(-c2ccc(CN3CCCCC[C@H]3c3ccccc3)[nH]2)c1 | 7.00 | 25 | 8.40 |
| COc1ccc(S(=O)(=O)Oc2ccccc2)cc1-c1ccc(CN2CCCCCC2c2ccccc2)[nH]1 (stereo unspecified) | 6.00 | 100 | 8.00 |
| COc1ccc(S(=O)(=O)N2CCOCC2)cc1-c1ccc(CN2CCCCCC2c2ccccc2)[nH]1 (stereo unspecified) | 7.00 | 60 | 8.80 |
| COc1ccc(S(=O)(=O)N2CCCc3ccccc32)cc1-c1ccc(CN2CCCCCC2c2ccccc2)[nH]1 (stereo unspecified) | 6.00 | 150 | 8.20 |
| COc1ccc(S(N)(=O)=O)cc1-c1ccc(CN2CCCCCC2c2ccccc2)[nH]1 (stereo unspecified) | 6.40 | 10 | 7.40 |
| COc1ccc(S(=O)(=O)N(C)C)cc1-c1ccc(CN2CCCCCC2c2ccccc2)[nH]1 (stereo unspecified) | 7.00 | 50 | 8.70 |
| COc1ccc(S(=O)(=O)C(C)C)cc1-c1ccc(CN2CCCCCC2c2ccccc2)[nH]1 (stereo unspecified) | 6.70 | 40 | 8.30 |
| CCS(=O)(=O)c1ccc(OC)c(-c2ccc(CN3CCCCC[C@@H]3c3ccccc3)[nH]2)c1 | 7.60 | 30 | 9.10 |
| COc1ccc(S(=O)(=O)N(C)c2ccccc2)cc1-c1ccc(CN2CCCCC[C@H]2c2ccccc2)[nH]1 | 5.80 | 100 | 7.80 |
| COc1ccc(S(=O)(=O)N2CCc3ccccc3C2)cc1-c1ccc(CN2CCCCCC2c2ccccc2)[nH]1 (stereo unspecified) | 6.70 | 100 | 8.70 |
| COc1ccc(S(=O)(=O)N(C)c2ccccc2)cc1-c1ccc(CN2CCCCCC2c2ccccc2)[nH]1 (stereo unspecified) | 6.20 | 100 | 8.20 |

The next lines start with the values.

| pKi [1] | Selectivity [2] | pKi [3] | SMILES |
| --- | --- | --- | --- |
|  | 30 |  | CCS(=O)(=O)c1ccc(OC)c(-c2ccc(CN3CCCCCC3c3ccccc3)[nH]2)c1 (stereo unspecified) |
| 6.90 | 30 | 8.40 | COc1ccc(S(=O)(=O)Cc2ccccc2)cc1-c1ccc(CN2CCCCCC2c2ccccc2)[nH]1 (stereo unspecified) |
| 6.30 | 80 | 8.20 | CCN(Cc1ccccc1)S(=O)(=O)c1ccc(OC)c(-c2ccc(CN3CCCCCC3c3ccccc3)[nH]2)c1 (stereo unspecified) |
| 6.20 | 8 | 7.10 | COc1ccc(S(=O)(=O)Nc2ccccc2)cc1-c1ccc(CN2CCCCCC2c2ccccc2)[nH]1 (stereo unspecified) |
| 6.30 | 125 | 8.40 | COc1ccc(S(=O)(=O)N(C)c2ccccc2)cc1-c1ccc(CN2CCCCC[C@@H]2c2ccccc2)[nH]1 |
